The source of these data is patent publication US10813920B2, “Drug for treating corneal endothelium by promoting cell proliferation or inhibiting cell damage” (THE DOSHISHA, priority 2013, dated 2020).

The structures appear in SMILES notation.

Test [1] has as its system corneal endothelial cells. Put plainly: Western blotting of cyclin dependent kinase inhibiting factors and G1/S transition molecules in cultured corneal endothelial cells. It is filed as cell-based, human. (Immunoblotting shows a protein as a band on a membrane.)
Test [2] relates to human corneal endothelial cells. The test is described as follows: Cytokine antibody array (Proteome Profiler) of corneal endothelial culture supernatant. It is filed as cell-based. As to conditions: 10 μM, semi quantitative. As to the method:
Corneal endothelial cells were cultured in the presence of 10 μM SB203580, and culture supernatant was collected as a sample solution. Cytokines in the culture supernatant were comprehensively measured semi quantitatively with a Proteome Profiler (# ARY005, R&D). A membrane blotted with cytokine antibodies was placed in a tray. 2 ml of blocking solution was added and the membrane was incubated for 1 hour at room temperature. Biotin antibodies were added to the sample solution and incubated for 1 hour at room temperature. The blocking solution was discarded. The membrane was immersed in an antibody solution and incubated overnight at 4° C. After washing the membrane, 2 ml of HRP labeling streptavidin solution diluted with a blocking solution was added and the membrane was incubated at room temperature for 30 minutes. After washing the membrane, a substrate solution was added for detection with LAS400 (Fuji Film).
Based on the aforementioned experimental methodology, a cytokine antibody array (Proteome Profiler, # ARY005, R&D Systems) blotted with 36 types of antibodies was used to find the expression pattern of cytokines in a human corneal endothelial culture solution.

Test [3] deals with corneal endothelial cells. The test is described as follows: Western blot of apoptosis molecules after UV irradiation. The class given is cell-based. As to conditions: UV 100 J/m^2, 10 μM. On the procedure:
*Human corneal endothelial cells (HCEC, where the cells were obtained and culturing method thereof): HCEC was cultured as follows. In short, Descemet's membrane including corneal endothelial cells was peeled off from a corneal for research purchased from the Seattle Eye Bank, and the corneal endothelial cells were mechanically peeled off with a basal membrane. After collagenase (ROCHE catalog No: 10 103 586 001) was used to detach and collect the corneal endothelial cell from the basal membrane (typically 1 mg/mL collagenase A (Roche Applied Science) was used for treatment at 37° C. for 2 hours), the cells were subjected to primary culture. The medium used was Opti-MEM I Reduced-Serum Medium, Liquid (INVITROGEN catalog No.: 31985-070) to which 8% fetal bovine serum (FBS) (BIOWEST, catalog No.: S1820-500), […] of CaCl2.2H2O (SIGMA catalog No.: C7902-500G), 0.08% of chondroitin sulfate (SIGMA catalog No.: C9819-5G), 20 μg/ml of ascorbic acid (SIGMA catalog No.: A4544-25G), 50 μg/ml of gentamicin (INVITROGEN catalog No.: 15710-064) and 5 ng/ml of EGF (INVITROGEN catalog No.: PHG0311) were added and acclimated for a 3T3 feeder cell. Specifically, after digestion at 37° C., HCEC obtained from individual corneas was resuspended in a culture medium and plated on a well of a 12-well plate coated with FNC Coating Mix®. The culture medium was prepared in accordance with a partially-modified disclosed protocol. In short, a basal cultural medium containing OptiMEM-I (Life Technologies), 8% FBS, 5 ng/mL of epithelial growth factor (EGF) (Sigma-Aldrich Co., St. Louis, Mo.), 20 μg/mL of ascorbic acid (Sigma-Aldrich), 200 mg/L calcium chloride (Sigma-Aldrich), 0.08% chondroitin sulfate (Wako Pure Chemical Industries, Osaka) and 50 μg/mL of gentamicin was prepared and an acclimated medium was collected after inactivated 3T3 fibroblasts were cultured. The 3T3 fibroblasts were inactivated as previously described. […] Immunostaining was applied to the cells for observation with a fluorescence microscope. […]

Setting [4] is: Western blotting after 20 days, 10 μM and 30 μM vs control.
[5] abbreviates: Western blotting, 10 μM, after 12 hours and 24 hours.

As for `C[S+]([O-])c1ccc(-c2nc(-c3ccncc3)c(-c3ccc(F)cc3)[nH]2)cc1` (stereo not shown) [SB203580, 4-(4-fluorophenyl)-2-(4-methylsulfinylphenyl)-5-(4-pyridyl)-1H-imidazole], in test [1] (setting [4]), the “expression of p16” value was “suppressed”, the “expression of p21” value is reported as “suppressed” and the “expression of p27” value is on record as “suppressed”. Moreover, in test [1] (setting [5]), the “Rb protein phosphorylation (p-pRb)” value is listed as “promoted”, the “cyclin D1 expression” value is listed as “promoted” and the “cyclin D3 expression” value is listed as “promoted”. The “Cytokines other than serpinE1 (GROa, sICAM-1, IL-6, IL-8, IL-23, MCP-1, MIF) in culture supernatant” value in test [2] was “decreased relative to vehicle”. Moreover, in test [3], the “activation by cleavage of PARP due to UV irradiation” value is on record as “suppresses”, the “activation by cleavage of caspase 3 due to UV irradiation” value is listed as “suppresses” and the “phosphorylated histone H2AX induced by UV irradiation” value is listed as “suppresses”.
